The values that follow come from patent US6087121A, “Chemiluminescent detection of heme proteins in biological samples” (Mayo Foundation for Medical Education and Research, priority 1999, dated 2000).

Assay [1] has as its system Mb. The assay is described as follows: S/N ratios of different chemiluminescent substrates with Mb. The note with it: signal integrated over first five seconds. The format is biochemical, human. The procedure:
(§1) Centricon ultrafiltration filters were obtained from Amicon (Daven, Mass.). Polystyrene tubes (5.0 mL volume, 75×12 mm) used for the assay were manufactured by Sarstedt (Arlington Heights, Ill.). The chemiluminescent substrate, 7-dimethylamino-naphthalene-1,2-dicarbonic acid-hydrazide (7-DNH) was purchased from Boehringer Mannheim (Indianapolis, Ind.). PS-1 acridan substrate (solution A and solution B) was obtained from Lumigen Inc. (Southfield, Mich.). […] Tween-20 and Sodium Chloride were purchased from Fisher Scientific (Fair Lawn, N.J.). General laboratory chemicals such as, boric acid, sodium acetate, Trizma base, HEPES, hydrogen peroxide (H2 O2) solution (30.0%), human hemoglobin, catalase, 6-amino-2,3-dihydro-1,4-phthallazinedione (4-aminophthalhydrazide), N-(4-Aminobutyl)-N-ethyl-isoluminol, Triton X-100, (3-[3-cholamidopropyl)dimethylammonio]-1-propanesulfonate) (CHAPS), hydrogen disulfite, methimazole, ofloxacin, ascorbic acid, ammonium chloride, EDTA, Hb, bilirubin, and lactoperoxidase (LPO) were purchased from Sigma Chemical Company (St. Louis, Mo.). Human heart myoglobin and myeloperoxidase were obtained from Calbiochem (La Jolla, Calif.) Thyroid peroxidase (TPO) was purchased from O.E.M. Concepts, Inc. (Toms River, N.J.). Eosinophil peroxidase was provided by Dr. Greipp (Mayo Clinic). Fresh EDTA anticoagulated blood was collected from donors showing no signs of sickness and washed with physiological saline to isolate RBC.
(§2) Fresh urine specimens were obtained in routine commercial collection vessels. The specimens were, either, analyzed immediately or stored at 4° C. until analysis. The urine samples were prepared for analysis by adding CTAC to produce a 0.1% solution, unless otherwise noted, in order to lyse the erythrocytes, thereby releasing hemoglobin. The assays were performed in a 75×12 mm polystyrene tube. The assay solutions were prepared by adding to each tube 294 μL of high ionic strength buffer, 5.0 μL of the prepared urine samples or standards, and […] of substrate (0.4 mM solution of 7-DNH), unless otherwise noted. […] The standard curve was obtained by plotting chemiluminescence emission in Relative Light Units (RLU) versus Hb concentration (μg/mL) or number of RBCs (#RBC/high power field (hpf)). Cell counts were determined with the Yellow Iris® instrument and confirmed by a manual hemocytometer count.
The substrate (7-DNH) and the ultrafiltered urine were prepared as described above. The kinetics of chemiluminescence was determined by monitoring the chemiluminescence signal over a 20 second time period following addition of the substrate (7-DNH) to ultrafiltered urine. Measurements were performed either in the presence or absence of Hb. […]

Assay [2] concerns Hb. Briefly: S/N ratios of different chemiluminescent substrates with Hb. As to conditions: signal integrated over first five seconds. The format is biochemical, human. Here is the method: as §1, §2
The substrate (7-DNH) and the ultrafiltered urine were prepared as described above. The kinetics of chemiluminescence was determined by monitoring the chemiluminescence signal over a 20 second time period following addition of the substrate (7-DNH) to ultrafiltered urine. Measurements were performed either in the presence or absence of Hb. Experiments performed in the absence of Hb provide background measurements in relative light units (RLU).

For assay [3], the target named is T1, MPO (Homo sapiens, UniProt P05164).
T1 sequence (P05164 49-745): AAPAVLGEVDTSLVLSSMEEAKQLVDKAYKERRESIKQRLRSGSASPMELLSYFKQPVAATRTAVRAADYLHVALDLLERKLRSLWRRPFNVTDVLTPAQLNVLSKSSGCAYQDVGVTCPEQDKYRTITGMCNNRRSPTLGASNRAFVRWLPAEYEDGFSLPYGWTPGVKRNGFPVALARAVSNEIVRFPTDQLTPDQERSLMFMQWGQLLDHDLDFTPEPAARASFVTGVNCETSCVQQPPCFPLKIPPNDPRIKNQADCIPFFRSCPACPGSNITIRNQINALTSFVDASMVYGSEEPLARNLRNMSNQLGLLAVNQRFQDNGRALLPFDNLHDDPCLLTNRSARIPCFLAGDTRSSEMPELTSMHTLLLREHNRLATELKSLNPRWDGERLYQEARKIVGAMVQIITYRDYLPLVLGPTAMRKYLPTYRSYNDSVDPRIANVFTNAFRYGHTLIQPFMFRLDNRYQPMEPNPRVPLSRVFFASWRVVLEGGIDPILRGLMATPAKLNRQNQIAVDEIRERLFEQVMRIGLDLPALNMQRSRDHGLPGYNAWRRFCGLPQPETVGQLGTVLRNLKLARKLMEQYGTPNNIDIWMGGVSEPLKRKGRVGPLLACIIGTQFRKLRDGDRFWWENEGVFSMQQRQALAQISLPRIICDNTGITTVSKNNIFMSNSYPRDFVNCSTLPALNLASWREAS
The assay is described as follows: Drug interferences with MPO (PS-1 assay in urine). The format is biochemical. The note with it: for inhibition at 0.001 µg/mL: 1 ng/mL. Here is the method: (§3) Urine samples were diluted 1:4 into distilled water to minimize inhibitory effects observed with hyperosmolal urines. Two μL of diluted urine were added to 12×75 mm polystyrene test tube containing 50 μL of the PS-1 solution. The tubes were incubated at 37° C. for 5 minutes. MPO activity was determined by chemiluminescence emission using a Turner TD-20e luminometer maintained at 37° C. Leukocyte counting was performed manually by using a hemacytometer chamber (Kova Glasstic slide, Hycor, Irvine, Calif.) on each urine sample to determine the number of cells/mL.
Several possible interfering substances were added to urine and tested for inhibitory effects. Several common medications were also tested for potential inhibitory effects.

Assay [4] has as its system Hb. The assay is described as follows: Interference studies in Hb assay (7-DNH chemiluminescence). The assay is classed as biochemical, human. As to conditions: for Level of Interference (in words): highest conc: ascorbic acid 10, bilirubin 10, Cu++/Mn++ 40, sodium azide 500 μg/mL, uric acid 1 mg/mL; for Level of Interference: level producing a signal equivalent to 3 RBC per high power field, fixed Hb concentration. The procedure: Numerous potential interfering substances, which either enhance or quench the signal generated by cyclic hydrazides, were evaluated. The effects of these potentially interfering substances on light emission was investigated at varying concentrations of the interfering composition. Assays were performed using serial dilutions of the potential interfering compositions in ultrafiltered urine at a fixed concentration of Hb. Comparisons of chemiluminescence emission were made between a reference solution (Hb in ultrafiltered urine) without added interfering compositions and solutions with added interferant.
Generally, the value of 3 RBC per high power field is the normal cutoff point.
Bilirubin and uric acid were examined as a possible negative interfering compositions because of their chemical structure which may quench energy emitted.

The target in assay [5] is T1, MPO. Briefly: Effects of potential interfering substances in WBC (MPO, PS-1) assay. As to conditions: highest tested: uric acid 1 mg/mL, ascorbic acid 100 μg/mL, bilirubin 50 μg/mL, trolox 1 mg/mL. The assay is classed as biochemical. The procedure:
as §3
Several possible interfering substances were added to urine and tested for inhibitory effects. Several common medications were also tested for potential inhibitory effects. […] Hb at concentrations of >10 μg/mL and Mb at concentrations >2 μg/mL were detected by the PS-1 substrate as the chemiluminescence emission was above the normal urine background. Samples grossly populated with bacteria caused slight inhibition of the MPO activity. Urine samples may contain many epithelial cells, casts, crystals, and numerous artifacts but none of these appear to interfere with the chemiluminescence emission from MPO.

Assay [6] relates to Hb. The assay is described as follows: Effects of detergents on chemiluminescence emission in Hb assay. The format is biochemical, human. The procedure:
Increasing concentrations of Hb were assayed with equal concentrations of different detergents to assess the effectiveness of the detergents at enhancing chemiluminescence emission. The effectiveness of the detergents was also compared at different time periods and varying concentrations. The ultrafiltered urine was assumed to contain neither Hb nor Mb and was used as the blank to assess background chemiluminescence emission with the substrate.

Entries after “also recorded” stand apart in the source; their conditions may differ. Where two headings read alike, the source gives them in different places. A value given as a limit tells only on which side of the number the result lay.

Turning to `CCN(CCCCN)c1ccc2c(=O)[nH][nH]c(=O)c2c1` [ABEI, N-(4-Aminobutyl)-N-ethyl-isoluminol], the “S/N for Mb” value in assay [1] worked out at 6. Further, the “S/N for Hb” value in assay [2] is 3.

Turning to `Cn1c(=O)c2[nH]cnc2n(C)c1=O` [Aminophyllin], the “% Inhibition of MPO” value in assay [3] (100 μg/mL) turned out to be 4%.

With `CN(C)CCC=C1c2ccccc2CCc2ccccc21` [Amitriptylene], the inhibition (as a rule, how much of the control response was suppressed) at 100 µg/mL in assay [3] (100 μg/mL, read-out: % Inhibition of MPO) stood at 75%.

In the case of `O=C1O[C@H]([C@@H](O)CO)C(O)=C1O` [Ascorbic Acid, ascorbic acid], the “Level of Interference (in words)” value is “None” in assay [4] and “did not interfere; also recorded: did not have an inhibitory effect on the reaction” in assay [4] (listed as ascorbic acid). Further, the “Interference (in words)” value in assay [5] is reported as “None”; in assay [5] (listed as ascorbic acid), “did not affect assay performance”.

As to `C=CC1=C(C)/C(=C/c2[nH]c(Cc3[nH]c(/C=C4\NC(=O)C(C)=C4C=C)c(C)c3CCC(=O)O)c(CCC(=O)O)c2C)NC1=O` [Bilirubin, bilirubin], the “Level of Interference (in words)” value in assay [4] is on record as “None”; in assay [4] (listed as bilirubin) it was “did not interfere”. Moreover, the “Interference (in words)” value in assay [5] is “None”; in assay [5] (listed as bilirubin), “did not affect assay performance”.

On to `CCCCCCCCCCCCCCCC[N+](C)(C)C.[Cl-]` [CTAC, cetyltrimethyl-ammonium chloride], for which the “enhancement of chemiluminescence signal” value in assay [6] (7-DNH, various Hb concentrations) was “highest chemiluminescence signal”. For the same compound, the “optimal concentration for enhancement of signal” value in assay [6] (dose-dependent enhancement, FIG. 4B) turned out to be 0.1%.

In assay [3], `C[C@]12CC[C@@H]3c4ccc(O)cc4CC[C@H]3[C@@H]1CC[C@@H]2O` [Estradiol] displayed an inhibition at 0.001 µg/mL of 20%.

Consider `C[C@]12CC[C@@H]3c4ccc(O)cc4CC[C@H]3[C@@H]1C[C@@H](O)[C@@H]2O` [Estriol], for which testing at 0.001 µg/mL in assay [3] gave an inhibition of 15%.

On to `Nc1ccc2c(=O)[nH][nH]c(=O)c2c1` [Isoluminol, 6-amino-2,3-dihydro-1,4-phthallazinedione], for which, in assay [1], the “S/N for Mb” value turned out to be 5. Also, the “S/N for Hb” value in assay [2] was 3.

Consider `CC(C(=O)O)c1cccc(C(=O)c2ccccc2)c1` (stereo not shown) [Ketoprofyn], for which the inhibition at 100 mg/day in assay [3] (read-out: % Inhibition of MPO) came to 10%.

Consider `Nc1cccc2c(=O)[nH][nH]c(=O)c12` [Luminol], for which the “S/N for Mb” value in assay [1] stood at 73. The “S/N for Hb” value in assay [2] was 89.

As to `COc1ccc2cc([C@H](C)C(=O)O)ccc2c1` [Naprosyn], in assay [3] (read-out: % Inhibition of MPO), the inhibition at 800 mg/day turned out to be 5%.

With `C[C@]12C=CC(=O)C=C1CC[C@@H]1[C@@H]2[C@@H](O)C[C@@]2(C)[C@H]1CC[C@]2(O)C(=O)CO` [Prednisolone], the inhibition at 100 µg/mL in assay [3] (read-out: % Inhibition of MPO) stood at 13%.

On to `[N-]=[N+]=[N-]` [Sodium Azide, sodium azide], for which the “Level of Interference (in words)” value in assay [4] is “None”; in assay [4] (listed as sodium azide), “did not interfere”.

Take `Cn1c(=O)c2[nH]cnc2n(C)c1=O` [Theophyllin]: the “% Inhibition of MPO” value in assay [3] (100 μg/mL) came to 11%.

For the compound `Cc1c(C)c2c(c(C)c1O)CCC(C)(C(=O)O)O2` (stereo not shown) [Trolox], the “Interference (in words)” value in assay [5] is “None”; in assay [5] (listed as trolox), “did not affect assay performance”.

Take `O=c1[nH]c(=O)c2[nH]c(=O)[nH]c2[nH]1` [Uric Acid, uric acid]: the “Level of Interference (in words)” value in assay [4] is on record as “None”; in assay [4] (listed as Uric acid), “did not interfere”. For the same compound, the entries for the “Interference (in words)” value in assay [5] and in assay [5] (listed as uric acid) were “None” and “did not affect assay performance”, respectively.

Regarding Catalase, in assay [4], the “Level of Interference (in words)” value is recorded as “only interfere at very high concentrations” and the “Level of Interference” value was greater than 7.8 µg/mL.

Turning to “Eosinophil peroxidase: Eosinophil peroxidase was provided by Dr. Greipp (Mayo Clinic)”, in assay [4], the “Level of Interference (in words)” value was “only interfere at very high concentrations” and the “Level of Interference” value was greater than 0.007 µg/mL.

Consider Superoxide dismutase, for which the “Level of Interference” value in assay [4] is greater than 125 µg/mL.
